Laboratory results from US20230374038A1, “MODULATORS OF CYSTIC FIBROSIS TRANSMEMBRANE CONDUCTANCE REGULATOR” (VERTEX PHARMACEUTICALS INCORPORATED, priority 2020, published 2023).

Each compound was assayed against T1, CFTR (Homo sapiens, UniProt P13569, DEL508-508) (assay: HBE Assay: Ussing chamber assay of CFTR-mediated short-circuit currents in F508del/MF-HBE cells with 1 μM Ivacaftor). Conditions: range of concentrations with 1 μM Ivacaftor, 18-24 hours, 20% human serum.
T1 construct: endogenous in cells; host or cells: primary human bronchial epithelial cells, F508del/MF genotype
T1 sequence (P13569 with tags, fused parts or gaps DEL508-508): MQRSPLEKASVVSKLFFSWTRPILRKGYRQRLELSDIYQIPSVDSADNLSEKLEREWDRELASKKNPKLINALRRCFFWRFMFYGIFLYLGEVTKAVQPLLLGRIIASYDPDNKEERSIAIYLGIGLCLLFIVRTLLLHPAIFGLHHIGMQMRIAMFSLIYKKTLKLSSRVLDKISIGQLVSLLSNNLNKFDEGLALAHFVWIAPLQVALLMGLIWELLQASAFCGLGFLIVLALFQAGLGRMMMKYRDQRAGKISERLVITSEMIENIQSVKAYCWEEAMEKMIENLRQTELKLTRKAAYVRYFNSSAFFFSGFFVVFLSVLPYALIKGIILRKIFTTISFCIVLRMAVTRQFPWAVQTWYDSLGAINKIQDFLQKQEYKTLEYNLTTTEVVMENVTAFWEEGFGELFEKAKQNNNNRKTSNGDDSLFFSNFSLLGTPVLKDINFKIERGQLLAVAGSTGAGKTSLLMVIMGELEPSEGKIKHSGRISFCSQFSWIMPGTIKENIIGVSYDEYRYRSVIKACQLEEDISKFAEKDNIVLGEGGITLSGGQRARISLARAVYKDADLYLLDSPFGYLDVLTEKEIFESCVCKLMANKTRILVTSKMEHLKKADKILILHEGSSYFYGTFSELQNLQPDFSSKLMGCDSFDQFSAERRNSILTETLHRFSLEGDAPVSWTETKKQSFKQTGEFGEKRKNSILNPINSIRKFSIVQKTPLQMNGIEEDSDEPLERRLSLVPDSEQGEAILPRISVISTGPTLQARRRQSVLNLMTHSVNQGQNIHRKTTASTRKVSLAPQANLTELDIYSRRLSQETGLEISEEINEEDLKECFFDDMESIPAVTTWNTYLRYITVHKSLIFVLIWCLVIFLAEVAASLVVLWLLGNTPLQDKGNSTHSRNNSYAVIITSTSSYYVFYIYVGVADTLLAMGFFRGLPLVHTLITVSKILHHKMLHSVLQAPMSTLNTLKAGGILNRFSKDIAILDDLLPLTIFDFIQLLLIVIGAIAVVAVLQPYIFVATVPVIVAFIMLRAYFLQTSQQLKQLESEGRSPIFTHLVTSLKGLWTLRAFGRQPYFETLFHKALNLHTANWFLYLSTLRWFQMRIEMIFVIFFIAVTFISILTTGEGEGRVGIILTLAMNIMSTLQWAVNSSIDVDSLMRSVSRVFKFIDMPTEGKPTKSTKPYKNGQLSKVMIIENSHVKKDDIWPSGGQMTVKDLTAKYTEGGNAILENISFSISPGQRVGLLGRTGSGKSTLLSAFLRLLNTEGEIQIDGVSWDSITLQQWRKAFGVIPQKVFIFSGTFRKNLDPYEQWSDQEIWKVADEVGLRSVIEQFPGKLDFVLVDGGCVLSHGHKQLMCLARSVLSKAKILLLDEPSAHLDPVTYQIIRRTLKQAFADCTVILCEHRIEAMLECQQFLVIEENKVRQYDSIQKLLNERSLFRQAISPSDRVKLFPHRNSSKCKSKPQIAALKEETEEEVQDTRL
Type: cell-based
How it was run: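 F508del/MF-HBE cells at air-liquid interface >14 days were incubated 18-24 h at 37° C with corrector (concentration range or fixed 10 μM) plus 1 μM Ivacaftor in 20% human serum, compounds kept throughout. Ussing chamber, Vhold=0 mV, 37° C, apical amiloride 30 μM; ISC (μA/cm^2) from peak 20 μM forskolin response to steady state after CFTR inhibitor cocktail.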
Cc1cccc(C)c1-c1nc2nc(c1F)OC[C@@H](CC(C)C)N(Cc1ncc(OC(C)C)cn1)C(=O)c1cccc(c1)S(=O)(=O)N2 [Compound 337] gave an EC50 of under 1000 nM. Work on Cc1cccc(C)c1-c1nc2nc(c1F)OC[C@@H](CC1CC1)N(Cc1ncc(OC3CCC3)cn1)C(=O)c1cccc(c1)S(=O)(=O)N2 [Compound 344] yielded an EC50 of 1000 to 3000 nM. In the case of Cc1cccc(C)c1-c1nc2nc(c1C)OC[C@@H](CC(C)(C)C)N(Cc1cnc(C3CCOCC3)cn1)C(=O)c1cccc(c1)S(=O)(=O)N2 [Compound 331], the EC50 is reported as under 1000 nM. COc1c2nc(nc1-c1c(C)cccc1C)NS(=O)(=O)c1cccc(c1)C(=O)N(Cc1ncc(OC(C)C)cn1)[C@H](CC(C)C)CO2 [Compound 348] was tested, and the EC50 was under 1000 nM. Cc1cccc(CC(C)(C)C)c1-c1nc2nc(c1C)OC[C@@H](CC(C)(C)C)N(Cc1ncc(OC(C)C)cn1)C(=O)c1cccc(c1)S(=O)(=O)N2 (atropisomer, axis not shown) [Compound 351] gave an EC50 of under 1000 nM.

Same assay, conditions: single fixed concentration of 10 μM with 1 μM Ivacaftor, 18-24 hours, 20% human serum
With Cc1cccc(C)c1-c1nc2nc(c1C)OC[C@@H](CC1CCC1)N(Cc1ncc(OC(C)C)cn1)C(=O)c1cccc(c1)S(=O)(=O)N2 [Compound 355] the “HBE Activity at 10 μM (%)” value was “+++ (+++ is >60%)”. In the case of Cc1cccc(CC(C)(C)C)c1-c1nc2nc(c1C)OC[C@@H](CC(C)(C)C)N(Cc1ncc(OC(C)C)cn1)C(=O)c1cccc(c1)S(=O)(=O)N2 (atropisomer, axis not shown) [Compound 351], the “HBE Activity at 10 μM (%)” value is reported as “+++ (+++ is >60%)”.

Same assay, conditions: single fixed concentration of 10 μM, with 1 μM Ivacaftor, 20% human serum
Cc1cccc(CC(C)C)c1-c1nc2nc(c1C)OC[C@@H](CC(C)(C)C)N(Cc1ncc(N(C)CC(C)(C)C)cn1)C(=O)c1cccc(c1)S(=O)(=O)N2 (atropisomer, axis not shown; (M)) [Compound 210, (5M,11R)-11-(2,2-dimethylpropyl)-12-({5-[(2,2-dimethylpropyl)(methyl)amino]pyrimidin-2-yl}methyl)-7-methyl-6-[2-methyl-6-(2-methylpropyl)phenyl]-9-oxa-2λ^6-thia-3,5,12,19-tetraazatricyclo[12.3.1.14,8]nonadeca-1(17),4(19),5,7,14(18),15-hexaene-2,2,13-trione] was tested, and the “HBE Activity at 10 μM” value was “+++ (+++ is >600%)”. Cc1cccc(CC(C)C)c1-c1nc2nc(c1C)OC[C@@H](C(C)C)N(Cc1nccc(N(C)C(C)C)n1)C(=O)c1cccc(c1)S(=O)(=O)N2 (atropisomer, axis not shown) [Compound 232] was tested, and the “HBE Activity at 10 μM” value was “+++ (+++ is >600%)”. With Cc1cccc(C)c1-c1nc2nc(c1C)OC[C@@H](C(C)C)N(Cc1ncc(OC(C)C)cn1)C(=O)c1cccc(c1)S(=O)(=O)N2 [Compound 197] the “HBE Activity at 10 μM” value was “+++ (+++ is >600%)”. With Cc1cccc(CC2CCOCC2)c1-c1nc2nc(c1C)OC[C@@H](CC(C)(C)C)N(Cc1ncc(N3CCOCC3)cn1)C(=O)c1cccc(c1)S(=O)(=O)N2 (atropisomer, axis not shown; (M)) [Compound 217, (5M,11R)-11-(2,2-dimethylpropyl)-7-methyl-6-{2-methyl-6-[(oxan-4-yl)methyl]phenyl}-12-{[5-(morpholin-4-yl)pyrimidin-2-yl]methyl}-9-oxa-2λ^6-thia-3,5,12,19-tetraazatricyclo[12.3.1.14,8]nonadeca-1(17),4(19),5,7,14(18),15-hexaene-2,2,13-trione] the “HBE Activity at 10 μM” value was “++ (++ is 30-60%)”. Cc1cccc(CC2CCOCC2)c1-c1nc2nc(c1C)OC[C@@H](CC(C)(C)C)N(Cc1ccc(N3CCOCC3)cn1)C(=O)c1cccc(c1)S(=O)(=O)N2 (atropisomer, axis not shown) [Compound 275] was tested, and the “HBE Activity at 10 μM” value was “+++ (+++ is >600%)”. Cc1cccc(OC(C)C)c1-c1nc2nc(c1C)OC[C@@H](CC(C)(C)C)N(Cc1cnc(N(C)CC(C)(C)C)cn1)C(=O)c1cccc(c1)S(=O)(=O)N2 [Compound 222] was tested, and the “HBE Activity at 10 μM” value was “+++ (+++ is >600%)”. In the case of Cc1cccc(CC(C)C)c1-c1nc2nc(c1C(F)(F)F)OC[C@@H](CC(C)(C)C)N(Cc1ncc(N3CCOCC3)cn1)C(=O)c1cccc(c1)S(=O)(=O)N2 (single isomer, unassigned) [Compound 213], the “HBE Activity at 10 μM” value is reported as “+++ (+++ is >600%)”. In the case of Cc1cccc(CC2CCCC2)c1-c1nc2nc(c1C)OC[C@@H](CC(C)(C)C)N(Cc1ccc(N3CCOCC3)cn1)C(=O)c1cccc(c1)S(=O)(=O)N2 (atropisomer, axis not shown) [Compound 288], the “HBE Activity at 10 μM” value is reported as “+++ (+++ is >600%)”. In the case of Cc1cccc(CC2CCOCC2)c1-c1nc2nc(c1C)OC[C@@H](CC(C)(C)C)N(Cc1ncc(N3CCC(C)(C)C3)cn1)C(=O)c1cccc(c1)S(=O)(=O)N2 (atropisomer, axis not shown) [Compound 271], the “HBE Activity at 10 μM” value is reported as “+++ (+++ is >600%)”.

Same assay, conditions: with 1 μM Ivacaftor, 18-24 hours, 20% human serum
In the case of Cc1c2nc(nc1-c1ccccc1C(C)C)NS(=O)(=O)c1cccc(c1)C(=O)N(Cc1ccc(N3CCOCC3)cn1)[C@H](CC(C)(C)C)CO2 [Compound 182], the EC50 is reported as under 1000 nM and the “HBE Max Activity” value is reported as “+++ (+++ is >600%)”. For Cc1cccc(CC2CCCCC2)c1-c1nc2nc(c1C)OC[C@@H](CC(C)(C)C)N(Cc1cccc(N(C(C)C)C(C)C)n1)C(=O)c1cccc(c1)S(=O)(=O)N2 (atropisomer, axis not shown) [Compound 256], the EC50 was under 1000 nM and the “HBE Max Activity” value was “+++ (+++ is >600%)”. Cc1cccc(CC2CCCCC2)c1-c1nc2nc(c1C)OC[C@@H](CC(C)(C)C)N(Cc1ncc(N3CCOCC3)cn1)C(=O)c1cccc(c1)S(=O)(=O)N2 (atropisomer, axis not shown) [Compound 305] was tested, and the EC50 was under 1000 nM and the “HBE Max Activity” value was “+++ (+++ is >600%)”. With Cc1cccc(CC2CCCCC2)c1-c1nc2nc(c1C)OC[C@@H](CC(C)(C)C)N(Cc1cccc(N(C)CC(C)(C)C)n1)C(=O)c1cccc(c1)S(=O)(=O)N2 (atropisomer, axis not shown) [Compound 259] the EC50 was under 1000 nM and the “HBE Max Activity” value was “+++ (+++ is >600%)”. Cc1cccc(CC2CCCCC2)c1-c1nc2nc(c1C)OC[C@@H](CC(C)(C)C)N(Cc1ncccc1N1CCOCC1)C(=O)c1cccc(c1)S(=O)(=O)N2 (atropisomer, axis not shown) [Compound 309] was tested, and the EC50 was under 1000 nM and the “HBE Max Activity” value was “+++ (+++ is >600%)”. In the case of CCc1cccc(C)c1-c1nc2nc(c1C)OC[C@@H](CC(C)(C)C)N(Cc1ccc(N3CCOCC3)cn1)C(=O)c1cccc(c1)S(=O)(=O)N2 (atropisomer, axis not shown) [Compound 286], the EC50 is reported as under 1000 nM and the “HBE Max Activity” value is reported as “+++ (+++ is >600%)”. COCCN(C)c1ccc(CN2C(=O)c3cccc(c3)S(=O)(=O)Nc3nc(c(C)c(-c4c(C)cccc4CC4CCCCC4)n3)OC[C@H]2CC(C)(C)C)nc1 (atropisomer, axis not shown) [Compound 290] was tested, and the EC50 was under 1000 nM and the “HBE Max Activity” value was “+++ (+++ is >600%)”. With Cc1cccc(CC2CCCCC2)c1-c1nc2nc(c1C)OC[C@@H](CC(C)(C)C)NC(=O)c1cccc(c1)S(=O)(=O)N2 (atropisomer, axis not shown) [Compound 311] the EC50 was under 1000 nM and the “HBE Max Activity” value was “+++ (+++ is >600%)”. In the case of Cc1cccc(C2CC2)c1-c1nc2nc(c1C)OC[C@@H](CC(C)(C)C)N(Cc1ccc(N3CCOCC3)cn1)C(=O)c1cccc(c1)S(=O)(=O)N2 (atropisomer, axis not shown) [Compound 228], the EC50 is reported as under 1000 nM and the “HBE Max Activity” value is reported as “+++ (+++ is >600%)”. For Cc1cccc(CC2CCCCC2)c1-c1nc2nc(c1C)OC[C@@H](CC(C)(C)C)N(Cc1nccc(C(C)C)n1)C(=O)c1cccc(c1)S(=O)(=O)N2 [Compound 250], the EC50 was under 1000 nM and the “HBE Max Activity” value was “+++ (+++ is >600%)”. In the case of Cc1cccc(CC2CCCCC2)c1-c1nc2nc(c1C)OC[C@@H](CC(C)(C)C)N(Cc1nccc(N(C)C)n1)C(=O)c1cccc(c1)S(=O)(=O)N2 (atropisomer, axis not shown) [Compound 261], the EC50 is reported as under 1000 nM and the “HBE Max Activity” value is reported as “+++ (+++ is >600%)”. In the case of COc1ccc(CN2C(=O)c3cccc(c3)S(=O)(=O)Nc3nc(c(C)c(-c4c(C)cccc4CC4CCCCC4)n3)OC[C@H]2CC(C)(C)C)nc1 (atropisomer, axis not shown) [Compound 302], the EC50 is reported as under 1000 nM and the “HBE Max Activity” value is reported as “+++ (+++ is >600%)”. Cc1cccc(CC2CCCCC2)c1-c1nc2nc(c1C(F)(F)F)OC[C@@H](CC(C)(C)C)N(Cc1ncc(N3CCOCC3)cn1)C(=O)c1cccc(c1)S(=O)(=O)N2 (atropisomer, axis not shown) [Compound 244] was tested, and the EC50 was under 1000 nM and the “HBE Max Activity” value was “+++ (+++ is >600%)”. CCc1cccc(C)c1-c1nc2nc(c1C)OC[C@@H](CC(C)(C)C)N(Cc1ccc(N3CCOCC3)cn1)C(=O)c1cccc(c1)S(=O)(=O)N2 (atropisomer, axis not shown) [Compound 287] was tested, and the EC50 was under 1000 nM and the “HBE Max Activity” value was “+++ (+++ is >600%)”. With Cc1cccc(C)c1-c1nc2nc(c1C)OC[C@@H](CC(C)(C)C)N(Cc1ccc(N3CCCCC3)cn1)C(=O)c1cccc(c1)S(=O)(=O)N2 [Compound 85] the EC50 was under 1000 nM and the “HBE Max Activity” value was “+++ (+++ is >600%)”. For Cc1cccc(CC2CCCCC2)c1-c1nc2nc(c1C)OC[C@@H](CC(C)(C)C)N(Cc1ccc(N3CCOCC3)cn1)C(=O)c1cccc(c1)S(=O)(=O)N2 (single isomer, unassigned) [Compound 206], the EC50 was under 1000 nM and the “HBE Max Activity” value was “+++ (+++ is >600%)”.

Same assay, conditions: with 1 μM Ivacaftor, 18-24 hours, 20% human serum, compared to known Vertex corrector with 18 μM Tezacaftor and 1 μM Ivacaftor, read-out: HBE Max activity (%)
Cc1cccc(C)c1-c1nc2nc(c1F)OC[C@@H](CC(C)C)N(Cc1ncc(OC(C)C)cn1)C(=O)c1cccc(c1)S(=O)(=O)N2 [Compound 337] showed an Emax of over 60%. Compound Cc1cccc(C)c1-c1nc2nc(c1F)OC[C@@H](CC1CC1)N(Cc1ncc(OC3CCC3)cn1)C(=O)c1cccc(c1)S(=O)(=O)N2 [Compound 344] has an Emax of over 60%. For Cc1cccc(C)c1-c1nc2nc(c1C)OC[C@@H](CC(C)(C)C)N(Cc1cnc(C3CCOCC3)cn1)C(=O)c1cccc(c1)S(=O)(=O)N2 [Compound 331], the Emax was over 60%. In the case of COc1c2nc(nc1-c1c(C)cccc1C)NS(=O)(=O)c1cccc(c1)C(=O)N(Cc1ncc(OC(C)C)cn1)[C@H](CC(C)C)CO2 [Compound 348], the Emax is reported as over 60%. In the case of Cc1cccc(CC(C)(C)C)c1-c1nc2nc(c1C)OC[C@@H](CC(C)(C)C)N(Cc1ncc(OC(C)C)cn1)C(=O)c1cccc(c1)S(=O)(=O)N2 (atropisomer, axis not shown) [Compound 351], the Emax is reported as over 60%.
